Reference: patent US12624350B2, “High-throughput single-nuclei and single-cell libraries and methods of making and of using” (ILLUMINA, INC., priority 2019, dated 2026)

What was measured:
Type in all cases: cell-based, human
[1] = test system: A549; assay: large-scale sci-Plex screen (sci-RNA-seq3) of 188 compounds; settings: A549, 24 hours; for distinct transcriptional states induced by the same drug (focal enrichments in UMAP): cells from all four doses
Procedure: We exposed three well-characterized human cancer cell lines, A549 (lung adenocarcinoma), K562 (chronic myelogenous leukemia), and MCF7 (mammary adenocarcinoma), to each of these 188 compounds at four doses (10 nM, 100 nM, 1 mM, and 10 mM) in duplicate, randomizing compounds and doses across well positions in replicate culture plates (data not shown). These conditions, together with vehicle controls, accounted for 4608 of 4992 independently treated cell populations in this experiment. After treatment, we lysed cells to expose nuclei, hashed them with a specific combination of two oligos (FIG. 10A), and performed sci-RNA-seq3 (21).
Lysis was conducted in the 96 well V-bottom plate. […] For the large compound screen, 500 femtomoles of an additional oligo was used to uniquely index each 96 well treatment plate. After lysis with 3 strokes of multichannel pipette, cells were fixed by addition of 200 μL of fixation buffer (5% Paraformaldehyde, 1.25×PBS). Nuclei were then fixed on ice for 15 minutes before pooling into a trough. Nuclei were pooled by plate into a 50 mL conical tube and pelleted by centrifugation at 500×g for 5 minutes. Subsequently, cells were resuspended in 500 μL of nuclei suspension buffer (NSB; (10 mM Tris-HCl, pH 7.4, 10 mM NaCl, 3 mM MgCl2, 1% Superase RNA Inhibitor, 1% 0.2 mg/mL Ultrapure BSA)). Finally, nuclei from all plates were pooled into a single conical tube and nuclei were pelleted by centrifugation at 500×g for 5 minutes. Nuclei were then resuspended in 1 mL of NSB and flash frozen into liquid nitrogen in 100 μL aliquots. Nuclei were then stored at −80 C until further processing with sci-RNA-seq.

[2] = test system: A549, MCF7 and K562 cells; assay: flow cytometry of total cellular acetylated lysines; design: dose or concentration left out as unconfirmed; settings: 24 hours
Procedure: A549 and MCF7 cells were seeded in 6 cm dishes at 1.6×10^6 cells per plate. K562 cells were seeded in T25 cm2 flasks at 1.6×10^6 cells per flask. […] After treatment cells were harvested as described above, pellets washed twice in PBS, resuspended in 500 μL of cold PBS and fixed by the addition of 5 mL of ice-cold ethanol while vortexing at low speed. Cells were stored at −20 C prior to processing for flow cytometry analysis. For flow cytometry, ethanol was removed and fixed cells washed twice with PBS containing 1% BSA (PBS-B) and blocked for 1 hour at room temperature. Then, blocking buffer was removed and cells were incubated in PBS containing 1% BSA and 0.1% tryton X-100 (PBS-BT) as well as a 1:500 dilution of mouse anti-acetyl-lysine antibody (cat no. ICP0390, ImmuneChem Pharmaceuticals Inc) for 2 hours at room temperature. After incubation, cells were washed twice with PBS-BT and incubated with goat anti-mouse Alexa-647 in PBS-BT for 1 hour at room temperature. Lastly, cells were washed twice with PBS-BT, once with PBS-B and resuspended in PBS-B containing 5 μg/ml Hoechst 33258 (Life Sciences Technologies) to stain the DNA. Then the levels of total acetylated-lysine and DNA content was analyzed by flow cytometry on an LSRII flow cytometer (BD Biosciences). Quantification and downstream analysis was performed using FlowJo10 (FlowJo.LLC).

[3] = test system: A549; assay: sci-Plex of pracinostat co-treatment with acetyl-CoA precursors or enzyme inhibitors; settings: 24 hours
Excerpt: (§1) To validate this further, we sought to shift the distribution of cells along the HDAC inhibitor trajectory by modulating cellular acetyl-CoA levels. We treated A549 and MCF7 cells with pracinostat in the presence and absence of acetyl-CoA precursors (acetate, pyruvate, or citrate) or inhibitors of enzymes (ACLY, ACSS2, or PDH) involved in replenishing acetyl-CoA pools. After treatment, cells were harvested and processed using sci-Plex and trajectories constructed for each cell line (FIGS. 39 and 40).
(§2) For 96-well experiments, adherent cells were trypsinized, washed with PBS and plated in tissue culture treated 96 well flat bottom plates (Thermo Fisher Scientific, cat no. 12-656-66) at 25,000 cells per well in 100 μL of media. Suspension cells were washed with PBS and plated in 96 well V-bottom tissue culture plates (Thermo Fisher Scientific, cat no. 549935) at 25,000 cells per well in 100 μL of media. Cells were allowed to recover for 24 hours before treatment with 1 μL of a 1:10 dilution of the appropriate compound or vehicle in PBS to maintain a vehicle concentration of 0.1% for all wells. Cells were then exposed to small molecules at the specified concentration for either 24 or 72 hours. For experiments where cells were co-treated with HDAC inhibitors and either acetate, pyruvate, citrate, ACSS2 inhibitor (EMD Millipore Inc., Cat No. 533756), ACLY inhibitor (Cayman Chemicals, BMS-303141 Cat No. 943962-47-8) or PDH inhibitor (Cayman Chemicals, Cat No. 504817), cells were treated 24 hours after plating and harvested after 24 hours. In this set of experiments, all wells contained a final concentration of 0.2% DMSO to match treatment with both the HDAC inhibitor and inhibitors of metabolic processes.
(§3) Gene expression profiles were visualized with Monocle 3, which uses UMAP to project them into a two or three dimensional space. Briefly, Monocle 3 first calculates size factors for every cell. Size factors were calculated as the log UMI counts observed in a single cell divided by the geometric mean of log UMI counts from all measured cells. After scaling each nucleus' UMI counts by its library size factor, Monocle3 adds a pseudocount of 1, and log transforms the counts. Next, these log-transformed profiles are projected onto the top 25 principal components. These PCA coordinates were transformed by Monocle 3 (using an approach similar to the removeBatchEffect( ) function in the limma package (42)) according to the model ‘˜log(UMIs)+replicate’ (FIG. 9) or ‘log(UMIs)+viability+proliferation index+replicate’. Adjusted PCA coordinates for each cell are used to initialize UMAP. Unless otherwise noted, UMAP was run with the following parameters: 50 nearest neighbors, min_dist=0.1, inter-cell distance assessed by cosine similarity. UMAP projection of cells after dual HDAC inhibition and acetyl-COA precursor supplementation or acetyl-CoA generating enzyme inhibition was performed as described with the exception that PCA initialization was performed on the top 1000 most overdispersed genes. Louvain community detection was then performed on this UMAP space using the python package ‘louvain’. Trajectory reconstruction was then performed as described in (21).

[4] = test system: MCF7; assay: as above; settings: 24 hours
Excerpt: as §1, §2, §3

## C/C(=C\c1csc(C)n1)[C@@H]1C[C@@H]2O[C@@H]2CCC[C@H](C)[C@H](O)[C@@H](C)C(=O)C(C)(C)[C@@H](O)CC(=O)O1 [epothilone A]
[1]
  distinct transcriptional states induced by the same drug (focal enrichments in UMAP): associated with three such focal enrichments

## CN(C)Cc1c(C(=O)NCCOc2ccc(C(=O)NO)cc2)oc2ccccc12 [abexinostat]
[2]
  acetylated lysine levels: markedly increased acetylated lysine levels

## CC1(C)O[C@@H]2C[C@H]3[C@@H]4CCC5=CC(=O)C=C[C@]5(C)[C@@]4(F)[C@@H](O)C[C@]3(C)[C@]2(C(=O)CO)O1 [triamcinolone acetonide]
[1]; cluster 18, Fisher's exact test FDR<1%
  share of the cells of one small UMAP cluster that were treated with the compound: 95%

## CC(=O)O [acetate]
[3]
  shift of pracinostat treated cells along the HDAC inhibitor trajectory: capable of blocking pracinostat treated cells from reaching the end of the HDAC inhibitor trajectory
[4]
  shift of pracinostat treated cells along the HDAC inhibitor trajectory: capable of blocking pracinostat treated cells from reaching the end of the HDAC inhibitor trajectory

## COCCNC(=O)Nc1ccc2nc(-c3cccs3)c(-c3cccs3)nc2c1 [ACSS2 inhibitor]
[3]
  shift of pracinostat treated cells along the HDAC inhibitor trajectory: no such shift was observed
[4]
  shift of pracinostat treated cells along the HDAC inhibitor trajectory: shifted cells farther along the HDAC inhibitor trajectory

## CCCCc1nc2cc(/C=C/C(=O)NO)ccc2n1CCN(CC)CC [pracinostat]
[2]
  acetylated lysine levels: markedly increased acetylated lysine levels
[1]
  heterogeneity of cell response along the HDAC inhibitor pseudodose trajectory at each dose: homogeneous responses

## COc1ccc(-c2ccccc2)cc1NS(=O)(=O)c1cc(Cl)cc(Cl)c1O [ACLY inhibitor]
[3]
  shift of pracinostat treated cells along the HDAC inhibitor trajectory: no such shift was observed
[4]
  shift of pracinostat treated cells along the HDAC inhibitor trajectory: shifted cells farther along the HDAC inhibitor trajectory

## O=C(O)CC(O)(CC(=O)O)C(=O)O [citrate]
[3]
  shift of pracinostat treated cells along the HDAC inhibitor trajectory: capable of blocking pracinostat treated cells from reaching the end of the HDAC inhibitor trajectory
[4]
  shift of pracinostat treated cells along the HDAC inhibitor trajectory: capable of blocking pracinostat treated cells from reaching the end of the HDAC inhibitor trajectory

## C/C(=C\c1csc(C)n1)[C@@H]1C[C@@H]2O[C@]2(C)CCC[C@H](C)[C@H](O)[C@@H](C)C(=O)C(C)(C)[C@@H](O)CC(=O)O1 [epothilone B]
[1]
  distinct transcriptional states induced by the same drug (focal enrichments in UMAP): associated with three such focal enrichments
